Source: patent publication US4205069A, “Dipeptide narcotic antagonists” (American Home Products Corporation, priority 1978, dated 1980)

Columns and labels:
[1] = test system: morphine-induced analgesia; experiment: Antagonism of morphine-induced analgesia, tail-flick test; type: in vivo, rat; details: rats, tail-flick latency >8 sec
Protocol: (§1) Duration of analgesia may conveniently be determined by testing for analgesia at regular intervals using a modification of the procedure of D'Amour and Smith, J. Pharmacol., 72, 74 (1941), the tail-flick test. In this test, the existence of analgesia in a rat is determined by measuring the increase in the latency period during which a rat will tolerate a high intensity light beam shining on the tip of its tail.
^a All rats were tested at 5minute intervals in the tailflick test
until latencies of 2 to 5 sec. were obtained on three consecutive trials.
All rats then received an injection of morphine sulfate (as indicated in
the table) and were returned to the tailflick test until three consecutiv
trials with no movement of the tail for 8 seconds were obtained. The rats
then received a subcutaneous injection of the test compound, or a control
injection, and were returned to the tailflick test to determine the
^b The duration score is the number of minutes the animal was
completely analgesic (tailflick latency >8 sec.) following injection of […]

[2] = test system: analgesia produced by intraventricular HTyr-D-Ala-Gly-Phe-D-Leu-NH2; experiment: Antagonism of enkephalin analog-induced analgesia, tail-flick test; type: in vivo, rat; details: rats, HTyr-D-Ala-Gly-Phe-D-Leu-NH2 1 μg intraventricular
Protocol: as §1
^a The procedure is the same as in Example 11 except that analgesia
was produced by an intraventricular injection of
HTyr-D-Ala-Gly-Phe-D-Leu-NH2, 1 μg. in 10 μ1. of Ringers
^b The duration score was the same as in Table 1.

[3] = morphine sulfate 2.5 mg/kg subcutaneously, test compound 2.5 mg/kg s.c.
[4] = morphine sulfate 2.5 mg/kg subcutaneously, test compound 5 mg/kg s.c.
[5] = morphine sulfate 5 mg/kg intraperitoneally, test compound 5 mg/kg s.c.

| Structure (SMILES) | Mean Duration of Analgesia ([1]; morphine sulfate 2.5 mg/kg subcutaneously, test compound 1 mg/kg s.c.) | Mean Duration of Analgesia [1, 3] | Mean Duration of Analgesia [1, 4] | Mean Duration of Analgesia [1, 5] | Mean Duration of Analgesia ([2]; test compound 5 mg/kg s.c.) | Mean Duration of Analgesia ([1]; morphine sulfate 5 mg/kg intraperitoneally, test compound 2.5 mg/kg s.c.) | Mean Duration of Analgesia ([2]; test compound 1.25 mg/kg s.c.) | Mean Duration of Analgesia ([2]; test compound 10 mg/kg s.c.) |
| --- | --- | --- | --- | --- | --- | --- | --- | --- |
| C[C@@H](NC(=O)[C@@H](N)Cc1ccc(O)cc1)C(N)=O [H-Tyr-D-Ala-NH2] | > 90.00 min | 55.00 min | 40.00 min | 41.67 min | 31.0 min |  |  |  |
| COC(=O)[C@@H](C)NC(=O)[C@@H](N)Cc1ccc(O)cc1 [H-Tyr-D-Ala-O-Me, H-Tyr-D-Ala-OMe] |  | 45.00 min | 61.67 min | 27.50 min | 5.0 min | 37.50 min | 20.0 min | 50.0 min |
